These results are taken from ChEMBL document CHEMBL5715260, “Selectivity Literature for EUbOPEN Chemogenomic Library” (2024).

Each structure is given as a SMILES string.

Assay [1] concerns the target T1, Hepatocyte nuclear factor 4-alpha (Homo sapiens) (UniProt P41235).
T1 sequence (whole entry): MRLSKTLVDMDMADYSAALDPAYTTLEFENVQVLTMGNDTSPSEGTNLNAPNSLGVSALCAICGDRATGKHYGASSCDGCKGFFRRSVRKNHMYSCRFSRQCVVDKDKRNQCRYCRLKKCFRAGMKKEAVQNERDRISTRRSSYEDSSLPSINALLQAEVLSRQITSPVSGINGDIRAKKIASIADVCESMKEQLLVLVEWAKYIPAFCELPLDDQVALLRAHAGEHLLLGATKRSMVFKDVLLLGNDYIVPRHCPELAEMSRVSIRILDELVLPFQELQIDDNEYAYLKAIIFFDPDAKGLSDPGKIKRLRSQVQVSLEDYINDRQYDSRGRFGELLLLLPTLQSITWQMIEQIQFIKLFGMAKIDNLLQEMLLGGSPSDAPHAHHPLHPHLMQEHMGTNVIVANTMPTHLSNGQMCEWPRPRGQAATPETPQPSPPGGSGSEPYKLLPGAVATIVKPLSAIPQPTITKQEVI
The assay is described as follows: Selectivity interaction (Reporter gene assay) EUB0001483aCl HNF4A. More on the design: recommended concentration 10 uM.

The target in assay [2] is Steroidogenic factor 1 (Homo sapiens) (UniProt Q13285). The assay is described as follows: Selectivity interaction (Reporter gene assay) EUB0001483aCl NR5A1. Set-up: recommended concentration 10 uM.
Chain of Steroidogenic factor 1 (Homo sapiens) (Q13285 whole entry): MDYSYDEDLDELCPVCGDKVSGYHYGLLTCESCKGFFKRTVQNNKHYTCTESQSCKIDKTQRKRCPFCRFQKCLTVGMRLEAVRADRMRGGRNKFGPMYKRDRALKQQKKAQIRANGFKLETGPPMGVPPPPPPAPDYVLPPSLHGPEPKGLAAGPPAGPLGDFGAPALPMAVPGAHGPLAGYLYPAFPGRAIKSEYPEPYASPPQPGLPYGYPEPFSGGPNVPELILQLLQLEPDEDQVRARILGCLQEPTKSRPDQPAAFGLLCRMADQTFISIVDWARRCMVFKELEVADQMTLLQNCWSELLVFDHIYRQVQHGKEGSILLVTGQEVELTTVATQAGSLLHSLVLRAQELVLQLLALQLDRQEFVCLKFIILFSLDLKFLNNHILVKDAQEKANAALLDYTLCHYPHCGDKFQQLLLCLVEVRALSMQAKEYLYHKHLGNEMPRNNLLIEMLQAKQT
Assay [3] has as its target Nuclear receptor subfamily 4immunitygroup A member 1 (Homo sapiens) (UniProt P22736). Put plainly: Selectivity interaction (Reporter gene assay) EUB0001483aCl NR4A1. More on the design: recommended concentration 10 uM. In general terms: A reporter such as luciferase makes a cellular process visible.
Assay [4] addresses T2, Alpha trans-inducing protein (Human alphaherpesvirus 1) (UniProt A0A5J6DW59). The assay is described as follows: Selectivity interaction (Reporter gene assay) EUB0001483aCl UL48. Set-up: recommended concentration 10 uM.
Assay [5] deals with T3, Nuclear receptor subfamily 2 group C member 1 (Homo sapiens) (UniProt P13056).
T3 sequence (whole entry): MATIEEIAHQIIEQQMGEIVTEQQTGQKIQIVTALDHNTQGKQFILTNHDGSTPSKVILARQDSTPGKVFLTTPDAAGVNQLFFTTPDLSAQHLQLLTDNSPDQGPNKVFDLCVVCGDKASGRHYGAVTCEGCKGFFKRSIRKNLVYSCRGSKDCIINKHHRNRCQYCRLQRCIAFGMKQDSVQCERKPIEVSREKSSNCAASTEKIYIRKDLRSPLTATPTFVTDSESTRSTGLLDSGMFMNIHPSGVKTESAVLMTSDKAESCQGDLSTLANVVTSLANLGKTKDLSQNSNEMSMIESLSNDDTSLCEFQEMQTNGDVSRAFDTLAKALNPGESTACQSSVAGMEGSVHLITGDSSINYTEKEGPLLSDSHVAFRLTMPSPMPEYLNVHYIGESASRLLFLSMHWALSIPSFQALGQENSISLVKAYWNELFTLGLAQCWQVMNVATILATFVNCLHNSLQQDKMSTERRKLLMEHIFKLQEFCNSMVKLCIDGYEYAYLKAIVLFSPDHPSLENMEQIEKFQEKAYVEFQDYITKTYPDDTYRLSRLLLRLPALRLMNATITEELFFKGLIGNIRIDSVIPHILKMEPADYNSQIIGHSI
The assay is described as follows: Selectivity interaction (Reporter gene assay) EUB0001483aCl NR2C1. More on the design: recommended concentration 10 uM.

The target in assay [6] is Nuclear receptor subfamily 2 group E member 1 (Homo sapiens) (UniProt Q9Y466). The assay is described as follows: Selectivity interaction (Reporter gene assay) EUB0001483aCl NR2E1. More on the design: recommended concentration 10 uM.
Chain of Nuclear receptor subfamily 2 group E member 1 (Homo sapiens) (Q9Y466 whole entry): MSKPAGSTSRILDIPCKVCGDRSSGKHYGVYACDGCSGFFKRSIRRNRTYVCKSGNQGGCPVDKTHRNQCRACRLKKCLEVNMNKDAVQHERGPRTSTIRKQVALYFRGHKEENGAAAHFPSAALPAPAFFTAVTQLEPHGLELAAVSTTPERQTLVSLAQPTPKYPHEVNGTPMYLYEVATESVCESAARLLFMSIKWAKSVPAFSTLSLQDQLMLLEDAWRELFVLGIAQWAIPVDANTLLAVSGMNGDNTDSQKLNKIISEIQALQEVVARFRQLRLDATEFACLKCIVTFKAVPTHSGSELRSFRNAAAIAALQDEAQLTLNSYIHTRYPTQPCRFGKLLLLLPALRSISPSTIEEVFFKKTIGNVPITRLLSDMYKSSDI
In assay [7] the target is T4, Retinoic acid receptor RXR-alpha (Homo sapiens) (UniProt P19793).
T4 sequence (whole entry): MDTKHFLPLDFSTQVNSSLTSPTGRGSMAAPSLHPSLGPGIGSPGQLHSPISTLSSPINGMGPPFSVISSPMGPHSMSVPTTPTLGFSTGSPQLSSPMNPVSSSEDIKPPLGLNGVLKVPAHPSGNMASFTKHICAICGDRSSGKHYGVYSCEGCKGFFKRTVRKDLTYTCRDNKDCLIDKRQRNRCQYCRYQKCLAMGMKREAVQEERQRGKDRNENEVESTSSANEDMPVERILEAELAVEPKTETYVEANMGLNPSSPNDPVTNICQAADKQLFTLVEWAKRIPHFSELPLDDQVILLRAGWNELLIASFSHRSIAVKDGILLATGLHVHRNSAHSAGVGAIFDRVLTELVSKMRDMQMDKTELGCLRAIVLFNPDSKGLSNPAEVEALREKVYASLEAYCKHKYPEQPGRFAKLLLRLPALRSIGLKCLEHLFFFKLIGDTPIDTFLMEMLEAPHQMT
Put plainly: Selectivity interaction (Reporter gene assay) EUB0001483aCl RXRA. More on the design: recommended concentration 10 uM. The note with it: reference bexarotene 1 uM, Selectivity number of off-targets 0.0, Selectivity number of targets 1.0, Source Knowledge inhouse.

The target in assay [8] is T3, Nuclear receptor subfamily 2 group C member 1 (Homo sapiens). Put plainly: Selectivity interaction (Reporter gene assay) EUB0001478a NR2C1. Set-up: recommended concentration 1 uM.
In assay [9] the target is Nuclear receptor subfamily 2 group E member 1 (Homo sapiens) (UniProt Q9Y466). Put plainly: Selectivity interaction (Reporter gene assay) EUB0001478a NR2E1. Set-up: recommended concentration 1 uM.
Assay [10] has as its target T4, Retinoic acid receptor RXR-alpha (Homo sapiens). Put plainly: Selectivity interaction (Reporter gene assay) EUB0001478a RXRA. More on the design: recommended concentration 1 uM.
For assay [11], the target named is Steroidogenic factor 1 (Homo sapiens) (UniProt Q13285). Put plainly: Selectivity interaction (Reporter gene assay) EUB0001478a NR5A1. More on the design: recommended concentration 1 uM.
Assay [12] addresses Nuclear receptor subfamily 4immunitygroup A member 1 (Homo sapiens) (UniProt P22736). The assay is described as follows: Selectivity interaction (Reporter gene assay) EUB0001478a NR4A1. Set-up: recommended concentration 1 uM.
Assay [13] deals with T1, Hepatocyte nuclear factor 4-alpha (Homo sapiens). Put plainly: Selectivity interaction (Reporter gene assay) EUB0001478a HNF4A. More on the design: recommended concentration 1 uM.
Assay [14] concerns the target T2, Alpha trans-inducing protein (Human alphaherpesvirus 1). The assay is described as follows: Selectivity interaction (Reporter gene assay) EUB0001478a UL48. Set-up: recommended concentration 1 uM.
For assay [15], the target named is T1, Hepatocyte nuclear factor 4-alpha (Homo sapiens). Put plainly: Selectivity interaction (Reporter gene assay) EUB0001173a HNF4A. Set-up: recommended concentration 1 uM.
Assay [16] has as its target Steroidogenic factor 1 (Homo sapiens) (UniProt Q13285). Put plainly: Selectivity interaction (Reporter gene assay) EUB0001173a NR5A1. Set-up: recommended concentration 1 uM.
The target in assay [17] is T3, Nuclear receptor subfamily 2 group C member 1 (Homo sapiens). The assay is described as follows: Selectivity interaction (Reporter gene assay) EUB0001173a NR2C1. Set-up: recommended concentration 1 uM.
In assay [18] the target is T4, Retinoic acid receptor RXR-alpha (Homo sapiens). Put plainly: Selectivity interaction (Reporter gene assay) EUB0001173a RXRA. Set-up: recommended concentration 1 uM.
Assay [19] addresses T2, Alpha trans-inducing protein (Human alphaherpesvirus 1). The assay is described as follows: Selectivity interaction (Reporter gene assay) EUB0001173a UL48. Set-up: recommended concentration 1 uM.
Assay [20] has as its target Nuclear receptor subfamily 4immunitygroup A member 1 (Homo sapiens) (UniProt P22736). The assay is described as follows: Selectivity interaction (Reporter gene assay) EUB0001173a NR4A1. Set-up: recommended concentration 1 uM.
For assay [21], the target named is T5, Oxysterols receptor LXR-beta (Homo sapiens) (UniProt P55055).
T5 sequence (whole entry): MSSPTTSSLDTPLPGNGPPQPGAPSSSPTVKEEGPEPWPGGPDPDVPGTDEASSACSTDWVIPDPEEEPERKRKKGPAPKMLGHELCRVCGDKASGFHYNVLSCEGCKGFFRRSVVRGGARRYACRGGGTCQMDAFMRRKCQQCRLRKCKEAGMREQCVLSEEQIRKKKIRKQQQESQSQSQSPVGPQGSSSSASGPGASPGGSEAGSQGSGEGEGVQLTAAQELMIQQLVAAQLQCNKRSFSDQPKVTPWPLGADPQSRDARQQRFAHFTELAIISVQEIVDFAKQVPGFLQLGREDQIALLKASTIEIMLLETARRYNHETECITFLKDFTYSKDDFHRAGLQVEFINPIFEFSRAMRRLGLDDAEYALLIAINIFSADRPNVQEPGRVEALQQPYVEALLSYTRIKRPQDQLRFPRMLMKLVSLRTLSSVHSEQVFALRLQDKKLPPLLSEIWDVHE
Put plainly: Selectivity interaction (Reporter gene assay) EUB0001173a NR1H2. More on the design: recommended concentration 1 uM. The note with it: screened at recom. conc., Selectivity number of off-targets 1.0, Selectivity number of targets 19.0, Source Knowledge inhouse.

The target of assay [22] is Nuclear receptor subfamily 2 group E member 1 (Homo sapiens) (UniProt Q9Y466). The assay is described as follows: Selectivity interaction (Reporter gene assay) EUB0001173a NR2E1. Set-up: recommended concentration 1 uM.
In assay [23] the target is DNA (cytosine-5)-methyltransferase 3B (Homo sapiens) (UniProt Q9UBC3). Put plainly: (§1) Selectivity interaction (Enzymatic assay (human methyltransferases)) EUB0002223a DNMT3B. More on the design: recommended concentration 1 uM. The note with it: at 50 µM.
Assay [24] concerns the target DNA (cytosine-5)-methyltransferase 3A (Homo sapiens) (UniProt Q9Y6K1). The conditions noted are these: at 50 µM.
Assay [25] deals with DNA (cytosine-5)-methyltransferase 3B (Homo sapiens) (UniProt Q9UBC3). The description is as §1. Set-up: recommended concentration 1 uM. The conditions noted are these: at 50 µM. This is another data set of the same source.
Assay [26] concerns the target DNA (cytosine-5)-methyltransferase 3A (Homo sapiens) (UniProt Q9Y6K1). The note with it: at 50 µM. This is another data set of the same source.
Assay [27] has as its target DNA (cytosine-5)-methyltransferase 3B (Homo sapiens) (UniProt Q9UBC3). Described as §1. The conditions noted are these: at 50 µM. Set-up: recommended concentration 1 uM. This is another data set of the same source.
Assay [28] addresses DNA (cytosine-5)-methyltransferase 3A (Homo sapiens) (UniProt Q9Y6K1). The note with it: at 50 µM. This is another data set of the same source.
In assay [29] the target is DNA (cytosine-5)-methyltransferase 3B (Homo sapiens) (UniProt Q9UBC3). The description is as §1. The note with it: at 50 µM. More on the design: recommended concentration 1 uM. The source holds these as a separate data set.
Assay [30] deals with DNA (cytosine-5)-methyltransferase 3A (Homo sapiens) (UniProt Q9Y6K1). The note with it: at 50 µM. The source holds these as a separate data set.
Chain of DNA (cytosine-5)-methyltransferase 3A (Homo sapiens) (Q9Y6K1 whole entry, looked up): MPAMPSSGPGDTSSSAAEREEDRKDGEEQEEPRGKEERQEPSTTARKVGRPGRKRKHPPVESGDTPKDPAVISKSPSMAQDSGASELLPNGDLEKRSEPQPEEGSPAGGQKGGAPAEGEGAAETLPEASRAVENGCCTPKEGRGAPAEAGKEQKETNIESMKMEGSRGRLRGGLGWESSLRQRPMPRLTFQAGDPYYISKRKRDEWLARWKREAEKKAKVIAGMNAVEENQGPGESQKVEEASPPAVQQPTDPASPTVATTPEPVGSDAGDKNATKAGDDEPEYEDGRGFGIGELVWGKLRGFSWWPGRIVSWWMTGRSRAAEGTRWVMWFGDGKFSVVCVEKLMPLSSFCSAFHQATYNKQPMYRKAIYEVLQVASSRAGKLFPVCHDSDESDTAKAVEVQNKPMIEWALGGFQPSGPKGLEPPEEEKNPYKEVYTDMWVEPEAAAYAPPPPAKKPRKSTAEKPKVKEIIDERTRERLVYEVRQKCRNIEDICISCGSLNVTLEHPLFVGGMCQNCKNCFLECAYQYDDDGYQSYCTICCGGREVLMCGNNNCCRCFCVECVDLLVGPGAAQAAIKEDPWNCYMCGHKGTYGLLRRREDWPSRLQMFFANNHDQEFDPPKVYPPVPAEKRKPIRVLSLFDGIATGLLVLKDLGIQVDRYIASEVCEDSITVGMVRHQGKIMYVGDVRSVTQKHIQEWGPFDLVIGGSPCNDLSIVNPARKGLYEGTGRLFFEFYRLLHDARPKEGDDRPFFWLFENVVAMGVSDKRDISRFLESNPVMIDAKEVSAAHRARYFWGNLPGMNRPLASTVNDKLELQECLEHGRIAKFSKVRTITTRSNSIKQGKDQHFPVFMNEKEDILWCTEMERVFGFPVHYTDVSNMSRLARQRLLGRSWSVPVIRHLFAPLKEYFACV

Chain of Nuclear receptor subfamily 4immunitygroup A member 1 (Homo sapiens) (P22736 whole entry): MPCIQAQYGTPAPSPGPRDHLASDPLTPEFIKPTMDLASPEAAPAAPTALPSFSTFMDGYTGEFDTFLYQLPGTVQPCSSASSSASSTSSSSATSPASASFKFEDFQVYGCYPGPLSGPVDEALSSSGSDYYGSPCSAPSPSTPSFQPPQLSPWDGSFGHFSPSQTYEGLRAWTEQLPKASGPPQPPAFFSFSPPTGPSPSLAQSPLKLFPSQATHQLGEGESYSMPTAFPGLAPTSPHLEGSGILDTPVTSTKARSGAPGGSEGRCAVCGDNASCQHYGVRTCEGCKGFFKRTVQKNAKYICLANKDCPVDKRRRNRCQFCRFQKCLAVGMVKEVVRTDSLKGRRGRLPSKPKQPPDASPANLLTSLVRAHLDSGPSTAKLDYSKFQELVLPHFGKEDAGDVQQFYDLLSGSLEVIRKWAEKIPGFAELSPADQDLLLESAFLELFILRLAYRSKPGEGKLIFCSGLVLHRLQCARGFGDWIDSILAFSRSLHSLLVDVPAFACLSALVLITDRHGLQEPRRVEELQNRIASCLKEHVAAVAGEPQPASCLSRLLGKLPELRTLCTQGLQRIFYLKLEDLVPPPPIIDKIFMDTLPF
T2 sequence (A0A5J6DW59 as listed by the source): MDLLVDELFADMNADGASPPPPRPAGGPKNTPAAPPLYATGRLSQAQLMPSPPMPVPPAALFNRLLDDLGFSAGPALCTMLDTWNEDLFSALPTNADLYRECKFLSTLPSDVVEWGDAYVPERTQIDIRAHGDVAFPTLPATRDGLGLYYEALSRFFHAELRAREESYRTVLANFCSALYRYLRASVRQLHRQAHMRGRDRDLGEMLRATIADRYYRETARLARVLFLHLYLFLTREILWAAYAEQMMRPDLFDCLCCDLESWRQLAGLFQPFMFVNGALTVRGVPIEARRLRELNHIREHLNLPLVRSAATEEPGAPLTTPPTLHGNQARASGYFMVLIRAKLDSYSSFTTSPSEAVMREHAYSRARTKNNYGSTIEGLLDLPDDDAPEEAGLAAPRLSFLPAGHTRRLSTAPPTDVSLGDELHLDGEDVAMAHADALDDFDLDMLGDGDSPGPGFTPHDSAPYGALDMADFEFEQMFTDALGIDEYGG

On to `CN1CCN(c2ccc(/C=C(\C#N)c3ccccc3Br)cc2)CC1`, for which the Fold activation turned out to be 1.03 in assay [1]; 1.5 in assay [2]; 1.35 in [3]; 1.32 in assay [5]; 1.32 in assay [6]. This compound had a P-value in [4] of 7.2e-05. The compound further yielded a Relative activation in assay [7] of 1.47%.
Regarding `C=C1/C(=C\C=C2/CCC[C@]3(C)[C@@H]([C@H](C)CCCC(C)(C)O)CC[C@@H]23)C[C@@H](O)C[C@@H]1O`, the figures for the Fold activation in assay [8], in assay [9] and in assay [12] were 1.06, 1.03 and 1.22, respectively. For the same compound, in assay [10], the Relative activation is 0.656%. Further, the Remaining activity stood at 0.937 in assay [11] and 0.883 in assay [13]. In addition, the P-value in assay [14] is 6.76e-09.
For `Cn1cc(C(=O)O)c2ccc(N3CCC(OCc4c(-c5c(Cl)cccc5Cl)noc4C4CC4)CC3)cc21`, the Fold activation in [15] was determined as 1.11; in assay [16] it was 0.997; in assay [17], 1.23; in assay [20], 1.01; in [21], 5.89; in [22] it was 1.08. Besides, the Relative activation in [18] amounted to 0.539%. Besides, the P-value in assay [19] came out at 1.58e-05.
Regarding `CCNC(=O)NCCSC[C@H]1O[C@@H](n2cnc3c(N)ncnc32)[C@H](O)[C@@H]1O`, the Enzyme activity in assay [23] is 45%; in assay [24] it was 38%; in [25], 45%; in assay [26], 38%; in [27], 45%; in [28], 38%. Moreover, the Enzyme activity came to 45% in [29] and 38% in assay [30].
